Organism: Rattus norvegicus
Assay: DrugMatrix - Regimen: Daily Repeat
Type: toxicity, organism-based, Sprague-Dawley
Parameters: regimen Daily Repeat, gender Male, age 6-8 weeks
Conditions: in vivo, po, route oral GAVAGE, […]; for ABSOLUTE BASOPHIL / ABSOLUTE EOSINOPHIL / ABSOLUTE LYMPHOCYTE / ABSOLUTE MONOCYTE / ABSOLUTE SEGMENTED NEUTROPHIL / BASOPHIL / EOSINOPHIL / ERYTHROCYTE COUNT / HEMATOCRIT / HEMOGLOBIN / LEUKOCYTE COUNT / LYMPHOCYTE / MEAN CORPUSCULAR HEMOGLOBIN / MEAN CORPUSCULAR HEMOGLOBIN CONCENTRATION / MEAN CORPUSCULAR VOLUME / MONOCYTE / NEUTROPHIL / NUCLEATED RED BLOOD CELLS / PLATELET COUNT: tissue Blood; for ALANINE AMINOTRANSFERASE / ALBUMIN / ALKALINE PHOSPHATASE / ASPARTATE AMINOTRANSFERASE / BLOOD UREA NITROGEN / CARBON DIOXIDE / CHLORIDE / CHOLESTEROL / CREATINE PHOSPHOKINASE / CREATININE / GLUCOSE / LACTATE DEHYDROGENASE / LIPASE / POTASSIUM / SODIUM / TOTAL BILIRUBIN / TOTAL PROTEIN / URIC ACID: tissue Plasma
[1] = 0 mg/kg, 72 h, dose level Control, time 3 day
[2] = 0 mg/kg, 120 h, dose level Control, time 5 day
[3] = 3 mg/kg, 72 h, dose level Low, time 3 day
[4] = 3 mg/kg, 120 h, dose level Low, time 5 day

SMILES: CCc1ccc(CCOc2ccc(CC3SC(=O)NC3=O)cc2)nc1 (configuration not stated) [PIOGLITAZONE]
- ABSOLUTE BASOPHIL [1]: 0 CELLS/uL
- ABSOLUTE EOSINOPHIL [1]: 22.83 CELLS/uL
- ABSOLUTE LYMPHOCYTE [1]: 11213.33 CELLS/uL
- ABSOLUTE MONOCYTE [1]: 169.83 CELLS/uL
- ABSOLUTE SEGMENTED NEUTROPHIL [1]: 960.67 CELLS/uL
- BASOPHIL [1]: 0%
- EOSINOPHIL [1]: 0.17%
- ERYTHROCYTE COUNT [1]: 5.34 x10E6/uL
- HEMATOCRIT [1]: 33.62%
- HEMOGLOBIN [1]: 13.17 G/DL
- LEUKOCYTE COUNT [1]: 12.37 x10E3/uL
- LYMPHOCYTE [1]: 90.33%
- MEAN CORPUSCULAR HEMOGLOBIN [1]: 24.65 pg
- MEAN CORPUSCULAR HEMOGLOBIN CONCENTRATION [1]: 39.18 G/DL
- MEAN CORPUSCULAR VOLUME [1]: 62.95 fL
- MONOCYTE [1]: 1.5%
- NEUTROPHIL [1]: 8%
- NUCLEATED RED BLOOD CELLS [1]: 0 /100WBC
- ALANINE AMINOTRANSFERASE [1]: 56.67 u/L
- ALBUMIN [1]: 4.55 G/DL
- ALKALINE PHOSPHATASE [1]: 305.17 u/L
- ASPARTATE AMINOTRANSFERASE [1]: 96.5 u/L
- BLOOD UREA NITROGEN [1]: 13.5 mg/dL
- CARBON DIOXIDE [1]: 31 mmol/L
- CHLORIDE [1]: 101.67 MEQ/L
- CHOLESTEROL [1]: 75.83 mg/dL
- CREATINE PHOSPHOKINASE [1]: 345.67 u/L
- CREATININE [1]: 0.28 mg/dL
- GLUCOSE [1]: 142.5 mg/dL
- LACTATE DEHYDROGENASE [1]: 136.67 u/L
- LIPASE [1]: 10.17 u/L
- POTASSIUM [1]: 5.41 MEQ/L
- SODIUM [1]: 146.7 MEQ/L
- TOTAL BILIRUBIN [1]: 0.13 mg/dL
- TOTAL PROTEIN [1]: 6.65 G/DL
- URIC ACID [1]: 0.77 mg/dL
- ABSOLUTE BASOPHIL [2]: 0 CELLS/uL
- ABSOLUTE EOSINOPHIL [2]: 26.33 CELLS/uL
- ABSOLUTE LYMPHOCYTE [2]: 10004.33 CELLS/uL
- ABSOLUTE MONOCYTE [2]: 141.33 CELLS/uL
- ABSOLUTE SEGMENTED NEUTROPHIL [2]: 1161.33 CELLS/uL
- BASOPHIL [2]: 0%
- EOSINOPHIL [2]: 0.33%
- ERYTHROCYTE COUNT [2]: 5.5 x10E6/uL
- HEMATOCRIT [2]: 34.8%
- HEMOGLOBIN [2]: 13.17 G/DL
- LEUKOCYTE COUNT [2]: 11.33 x10E3/uL
- LYMPHOCYTE [2]: 87.83%
- MEAN CORPUSCULAR HEMOGLOBIN [2]: 23.95 pg
- MEAN CORPUSCULAR HEMOGLOBIN CONCENTRATION [2]: 37.83 G/DL
- MEAN CORPUSCULAR VOLUME [2]: 63.28 fL
- MONOCYTE [2]: 1.17%
- NEUTROPHIL [2]: 10.67%
- NUCLEATED RED BLOOD CELLS [2]: 0 /100WBC
- PLATELET COUNT [2]: 1035.33 x10E3/uL
- ALANINE AMINOTRANSFERASE [2]: 36 u/L
- ALBUMIN [2]: 4.63 G/DL
- ALKALINE PHOSPHATASE [2]: 266.33 u/L
- ASPARTATE AMINOTRANSFERASE [2]: 71.67 u/L
- BLOOD UREA NITROGEN [2]: 11.33 mg/dL
- CARBON DIOXIDE [2]: 30.17 mmol/L
- CHLORIDE [2]: 100.83 MEQ/L
- CHOLESTEROL [2]: 70.33 mg/dL
- CREATINE PHOSPHOKINASE [2]: 226.17 u/L
- CREATININE [2]: 0.27 mg/dL
- GLUCOSE [2]: 147.83 mg/dL
- LACTATE DEHYDROGENASE [2]: 111.67 u/L
- LIPASE [2]: 8 u/L
- POTASSIUM [2]: 5.14 MEQ/L
- SODIUM [2]: 145.48 MEQ/L
- TOTAL BILIRUBIN [2]: 0.1 mg/dL
- TOTAL PROTEIN [2]: 6.53 G/DL
- URIC ACID [2]: 0.52 mg/dL
- ABSOLUTE BASOPHIL [3]: 0 CELLS/uL
- ABSOLUTE EOSINOPHIL [3]: 196.67 CELLS/uL
- ABSOLUTE LYMPHOCYTE [3]: 13366 CELLS/uL
- ABSOLUTE MONOCYTE [3]: 155.33 CELLS/uL
- ABSOLUTE SEGMENTED NEUTROPHIL [3]: 1182 CELLS/uL
- BASOPHIL [3]: 0%
- EOSINOPHIL [3]: 1.33%
- ERYTHROCYTE COUNT [3]: 5.51 x10E6/uL
- HEMATOCRIT [3]: 35.97%
- HEMOGLOBIN [3]: 13.93 G/DL
- LEUKOCYTE COUNT [3]: 14.9 x10E3/uL
- LYMPHOCYTE [3]: 89.67%
- MEAN CORPUSCULAR HEMOGLOBIN [3]: 25.3 pg
- MEAN CORPUSCULAR HEMOGLOBIN CONCENTRATION [3]: 38.77 G/DL
- MEAN CORPUSCULAR VOLUME [3]: 65.23 fL
- MONOCYTE [3]: 1%
- NEUTROPHIL [3]: 8%
- NUCLEATED RED BLOOD CELLS [3]: 0 /100WBC
- PLATELET COUNT [3]: 1174 x10E3/uL
- ALANINE AMINOTRANSFERASE [3]: 60.33 u/L
- ALBUMIN [3]: 4.03 G/DL
- ALKALINE PHOSPHATASE [3]: 427.33 u/L
- ASPARTATE AMINOTRANSFERASE [3]: 94.33 u/L
- BLOOD UREA NITROGEN [3]: 8.67 mg/dL
- CARBON DIOXIDE [3]: 32.67 mmol/L
- CHLORIDE [3]: 103.67 MEQ/L
- CHOLESTEROL [3]: 64.67 mg/dL
- CREATINE PHOSPHOKINASE [3]: 625.67 u/L
- CREATININE [3]: 0.22 mg/dL
- GLUCOSE [3]: 155.67 mg/dL
- LACTATE DEHYDROGENASE [3]: 125.67 u/L
- LIPASE [3]: 12.33 u/L
- POTASSIUM [3]: 6.21 MEQ/L
- SODIUM [3]: 145.77 MEQ/L
- TOTAL BILIRUBIN [3]: 0.13 mg/dL
- TOTAL PROTEIN [3]: 5.33 G/DL
- URIC ACID [3]: 1.63 mg/dL
- ABSOLUTE BASOPHIL [4]: 0 CELLS/uL
- ABSOLUTE EOSINOPHIL [4]: 37 CELLS/uL
- ABSOLUTE LYMPHOCYTE [4]: 11883.67 CELLS/uL
- ABSOLUTE MONOCYTE [4]: 95.33 CELLS/uL
- ABSOLUTE SEGMENTED NEUTROPHIL [4]: 1150.67 CELLS/uL
- BASOPHIL [4]: 0%
- EOSINOPHIL [4]: 0.33%
- ERYTHROCYTE COUNT [4]: 5.61 x10E6/uL
- HEMATOCRIT [4]: 36.33%
- HEMOGLOBIN [4]: 14.47 G/DL
- LEUKOCYTE COUNT [4]: 13.17 x10E3/uL
- LYMPHOCYTE [4]: 90.33%
- MEAN CORPUSCULAR HEMOGLOBIN [4]: 25.8 pg
- MEAN CORPUSCULAR HEMOGLOBIN CONCENTRATION [4]: 39.83 G/DL
- MEAN CORPUSCULAR VOLUME [4]: 64.8 fL
- MONOCYTE [4]: 0.67%
- NEUTROPHIL [4]: 8.67%
- NUCLEATED RED BLOOD CELLS [4]: 0 /100WBC
- PLATELET COUNT [4]: 1242.33 x10E3/uL
- ALANINE AMINOTRANSFERASE [4]: 58.33 u/L
- ALBUMIN [4]: 4.03 G/DL
- ALKALINE PHOSPHATASE [4]: 346.67 u/L
- ASPARTATE AMINOTRANSFERASE [4]: 87.67 u/L
- BLOOD UREA NITROGEN [4]: 13 mg/dL
- CARBON DIOXIDE [4]: 30.67 mmol/L
- CHLORIDE [4]: 101 MEQ/L
- CHOLESTEROL [4]: 64.67 mg/dL
- CREATINE PHOSPHOKINASE [4]: 464 u/L
- CREATININE [4]: 0.13 mg/dL
- GLUCOSE [4]: 150.33 mg/dL
- LACTATE DEHYDROGENASE [4]: 542.33 u/L
- LIPASE [4]: 11.33 u/L
- POTASSIUM [4]: 6.64 MEQ/L
- SODIUM [4]: 142.57 MEQ/L
- TOTAL BILIRUBIN [4]: 0.2 mg/dL
- TOTAL PROTEIN [4]: 5.7 G/DL
- URIC ACID [4]: 1.57 mg/dL

From ChEMBL document CHEMBL3885881, “DrugMatrix”
